Like-named read-outs stand apart in the source and are kept apart here.
Experiments:
BRD9 [1] = biological target: T1, BRD9 (Homo sapiens, UniProt Q9H8M2); experiment: BRD9 degradation, HiBiT-BRD9 KI HEK293 (LgBiT) cells, NanoGlo Lytic Endpoint assay (Assay Protocol 1); format: cell-based; conditions: for Dmax / Dmax at 1 µM: HEK293
T1 sequence (Q9H8M2 1-597): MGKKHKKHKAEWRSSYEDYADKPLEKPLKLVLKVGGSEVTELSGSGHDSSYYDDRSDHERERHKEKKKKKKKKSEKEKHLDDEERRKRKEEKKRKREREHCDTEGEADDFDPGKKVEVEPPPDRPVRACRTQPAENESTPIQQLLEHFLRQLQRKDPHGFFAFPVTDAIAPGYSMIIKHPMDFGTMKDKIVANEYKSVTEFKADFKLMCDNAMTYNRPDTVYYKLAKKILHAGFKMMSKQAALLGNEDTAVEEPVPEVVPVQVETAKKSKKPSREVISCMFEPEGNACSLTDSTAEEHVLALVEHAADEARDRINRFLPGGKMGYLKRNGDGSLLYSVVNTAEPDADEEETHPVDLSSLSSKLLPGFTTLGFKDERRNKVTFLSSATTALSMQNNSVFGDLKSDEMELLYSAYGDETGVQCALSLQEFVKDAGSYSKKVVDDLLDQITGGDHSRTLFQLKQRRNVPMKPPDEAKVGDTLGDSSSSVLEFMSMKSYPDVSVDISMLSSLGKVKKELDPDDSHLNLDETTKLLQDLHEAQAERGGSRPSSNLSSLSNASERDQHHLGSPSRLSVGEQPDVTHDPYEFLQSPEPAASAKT
In short: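 HiBiT-tagged BRD9 knock-in HEK293 (LgBiT) cells exposed to compounds for 6 h at 37 °C, 5% CO2. Residual BRD9 measured by HiBiT lytic luminescence. % BRD9 remaining normalised to DMSO-treated cells (high) and no-cell wells (low).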

BRD9 [2] = biological target: T1, BRD9; experiment: Degradation of BRD9 (IF), immunofluorescence in MV4-11 cells, 24 hours (Assay Protocol 2); format: cell-based; set-up: A suspension of MV4-11 cells (ATCC CRL-9591) was prepared; host or cells: MV4-11
In short: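 % BRD9 remaining, scaled between DMSO (high) and 100 nM CFT-8634 (low) control wells, derives from mean Alexa 647 contrast in central nuclei by high-content imaging. MV4-11 cells had 24 h compound exposure at 37° C. before PFA fixation, Triton permeabilisation and anti-BRD9 E4Q3F immunostaining.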

[3] = Table 4, BRD9 degradation, determined according to Assay Protocol 1, read-out: Dmax^1
[4] = Table 5, assay protocol 1, read-out: BRD9 Dmax (%)
[5] = Table 4, BRD9 degradation, determined according to Assay Protocol 1, read-out: DC50^1
[6] = Table 5, assay protocol 1, read-out: BRD9 DC50
[7] = MV4-11, Table 4, BRD9 degradation, determined according to Assay Protocol 2, read-out: Dmax^2
[8] = Table 4, BRD9 degradation, determined according to Assay Protocol 2, read-out: DC50^2
[9] = Table 2, BRD9 degradation, Assay Protocol 1, 1 μM compound at 6 h of treatment, read-out: Assay 1 Dmax
[10] = Table 3, assay 1, 1 μM compound at 5 h of treatment, read-out: BRD9 Dmax (%)
[11] = Table 2, BRD9 degradation, Assay Protocol 1, 6 h of treatment, read-out: Assay 1 DC50
[12] = MV4-11, 24 h, Table 2, BRD9 degradation (IF), Assay Protocol 2, MV4-11 cells, read-out: Assay 2 DCmax
[13] = Table 2, BRD9 degradation (IF), Assay Protocol 2, MV4-11 cells, read-out: Assay 2 DC50
[14] = MV4-11, Table 5, cells marked *: measured in accordance with Assay Protocol 2, read-out: BRD9 Dmax (%)
[15] = Table 5, cells marked *: measured in accordance with Assay Protocol 2, read-out: BRD9 DC50

## COc1cc(-c2cn(C)c(=O)c(C)c2C)cc(OC)c1CN1CC2CC1CN2C(=O)/C(C#N)=C/C(C)(C)C (mixture of isomers) [BRD9b]
BRD9 [1]; [3]
  Dmax: > 70%
BRD9 [1]; [4]
  Dmax: 70 to 75%
BRD9 [1]; [5]
  DC50: < 25 nM
BRD9 [1]; [6]
  DC50: 10 to 25 nM
BRD9 [2]; [7]
  Dmax: 50 to 70%
BRD9 [2]; [8]
  DC50: < 25 nM

## COc1cc(-c2cn(C)c(=O)c(C)c2C)cc(OC)c1CN1CC2CC1CN2C(=O)/C(C#N)=C/c1nccs1 (mixture of isomers) [BRD9i, (E/Z)-2-(5-(2,6-dimethoxy-4-(1,4,5-trimethyl-6-oxo-1,6-dihydropyridin-3-yl)benzyl)-2,5-diazabicyclo[2.2.1]heptane-2-carbonyl)-3-(thiazol-2-yl)acrylonitrile]
BRD9 [1]; [3]
  Dmax: 50 to 70%
BRD9 [1]; [4]
  Dmax: 40 to 70%
BRD9 [1]; [5]
  DC50: 25 to 200 nM
BRD9 [1]; [6]
  DC50: 25 to 1000 nM
BRD9 [2]; [8]
  DC50: < 25 nM

## COc1cc(-c2cn(C)c(=O)c(C)c2C)cc(OC)c1CN1C2CC1CN(C(=O)/C(C#N)=C/c1cccc(Br)n1)C2 (mixture of isomers) [BRD9o, (E/Z)-3-(6-bromopyridin-2-yl)-2-(6-(2,6-dimethoxy-4-(1,4,5-trimethyl-6-oxo-1,6-dihydropyridin-3-yl)benzyl)-3,6-diazabicyclo[3.1.1]heptane-3-carbonyl)acrylonitrile]
BRD9 [1]; [3]
  Dmax: > 70%
BRD9 [1]; [4]
  Dmax: > 75%
BRD9 [1]; [6]
  DC50: 10 to 25 nM
BRD9 [2]; [8]
  DC50: 25 to 200 nM

## COc1cc(-c2cn(C)c(=O)c(C)c2C)cc(OC)c1CN1CCN(Cc2cccc3c2CCN(C(=O)/C(C#N)=C/c2nccs2)C3C)CC1 (mixture of isomers) [Compound A4, (E/Z)-2-(5-((4-(2,6-dimethoxy-4-(1,4,5-trimethyl-6-oxo-1,6-dihydropyridin-3-yl)benzyl)piperazin-1-yl)methyl)-1-methyl-1,2,3,4-tetrahydroisoquinoline-2-carbonyl)-3-(thiazol-2-yl)acrylonitrile]
BRD9 [1]; [9]
  Dmax at 1 µM: 70 to 75%
BRD9 [1]; [10]
  Dmax at 1 µM: 70 to 75%
BRD9 [1]; [11]
  DC50: < 1.25 nM
BRD9 [2]; [12]
  Dmax: 70 to 75%
BRD9 [2]; [13]
  DC50: < 1.25 nM

## COc1cc(-c2cn(C)c(=O)c3cnccc23)cc(OC)c1CN1CCN(Cc2cccc3c2CCN(C(=O)/C(C#N)=C\c2ncc(C)s2)C3C)CC1 (mixture of isomers) [Compound A10, (E/Z)-2-(5-((4-(2,6-dimethoxy-4-(2-methyl-1-oxo-1,2-dihydro-2,7-naphthyridin-4-yl)benzyl)piperazin-1-yl)methyl)-1-methyl-1,2,3,4-tetrahydroisoquinoline-2-carbonyl)-3-(5-methylthiazol-2-yl)acrylonitrile]
BRD9 [1]; [9]
  Dmax at 1 µM: 40 to 70%
BRD9 [1]; [10]
  Dmax: 40 to 70%
BRD9 [1]; [11]
  DC50: < 1.25 nM
BRD9 [2]; [12]
  Dmax: 40 to 70%
BRD9 [2]; [13]
  DC50: < 1.25 nM

## COc1cc(-c2cn(C)c(=O)c(C)c2C)cc(OC)c1CN1CCN(Cc2cccc3c2CCN(C(=O)/C(C#N)=C/c2cccc(Br)n2)C3C)CC1 (mixture of isomers) [Compound A16, (E/Z)-3-(6-bromopyridin-2-yl)-2-(5-((4-(2,6-dimethoxy-4-(1,4,5-trimethyl-6-oxo-1,6-dihydropyridin-3-yl)benzyl)piperazin-1-yl)methyl)-1-methyl-1,2,3,4-tetrahydroisoquinoline-2-carbonyl) acrylonitrile]
BRD9 [1]; [9]
  Dmax at 1 µM: 70 to 75%
BRD9 [1]; [10]
  Dmax at 1 µM: 70 to 75%
BRD9 [1]; [11]
  DC50: 1.25 to 10 nM
BRD9 [2]; [12]
  Dmax: 40 to 70%
BRD9 [2]; [13]
  DC50: < 1.25 nM

## COc1cc(-c2cn(C)c(=O)c3cnccc23)cc(OC)c1CN(C)Cc1cccc2c1CCN(C(=O)/C(C#N)=C/c1cccc(Br)n1)C2C (mixture of isomers) [Compound A50]
BRD9 [1]; [9]
  Dmax at 1 µM: > 75%
BRD9 [1]; [10]
  Dmax at 1 µM: > 75%
BRD9 [1]; [11]
  DC50: < 1.25 nM
BRD9 [2]; [12]
  Dmax: > 75%
BRD9 [2]; [13]
  DC50: 1.25 to 10 nM

## COc1cc(-c2cn(C)c(=O)c(C)c2C)cc(OC)c1CN1CCC(Oc2cccc3c2CCN(C(=O)/C(C#N)=C/c2cccc(Br)n2)C3C)CC1 (mixture of isomers) [Compound A68, (E/Z)-3-(6-bromopyridin-2-yl)-2-(5-((1-(2,6-dimethoxy-4-(1,4,5-trimethyl-6-oxo-1,6-dihydropyridin-3-yl)benzyl)piperidin-4-yl)oxy)-1-methyl-1,2,3,4-tetrahydroisoquinoline-2-carbonyl)acrylonitrile]
BRD9 [1]; [9]
  Dmax at 1 µM: > 75%
BRD9 [1]; [10]
  Dmax at 1 µM: > 75%
BRD9 [1]; [11]
  DC50: 1.25 to 10 nM
BRD9 [2]; [12]
  Dmax: 40 to 70%
BRD9 [2]; [13]
  DC50: < 1.25 nM

## COc1cc(-c2cn(C)c(=O)c(C)c2C)cc(OC)c1CN1CC2CC(C1)N2Cc1cccc2c1CCN(C(=O)/C(C#N)=C/C(C)(C)C)C2C (mixture of isomers) [Compound A71, (E/Z)-2-(5-((3-(2,6-dimethoxy-4-(1,4,5-trimethyl-6-oxo-1,6-dihydropyridin-3-yl)benzyl)-3,6-diazabicyclo[3.1.1]heptan-6-yl)methyl)-1-methyl-1,2,3,4-tetrahydroisoquinoline-2-carbonyl)-4,4-dimethylpent-2-enenitrile]
BRD9 [1]; [9]
  Dmax at 1 µM: 70 to 75%
BRD9 [1]; [10]
  Dmax at 1 µM: 70 to 75%
BRD9 [1]; [11]
  DC50: 1.25 to 10 nM
BRD9 [2]; [12]
  Dmax: > 75%
BRD9 [2]; [13]
  DC50: < 1.25 nM

## COc1cc(-c2cn(C)c(=O)c(C)c2C)cc(OC)c1CN1CCCN(Cc2cccc3c2CCN(C(=O)/C(C#N)=C/C(C)(C)C)C3C)CC1 (mixture of isomers) [Compound A72, (E/Z)-2-(5-((4-(2,6-dimethoxy-4-(1,4,5-trimethyl-6-oxo-1,6-dihydropyridin-3-yl)benzyl)-1,4-diazepan-1-yl)methyl)-1-methyl-1,2,3,4-tetrahydroisoquinoline-2-carbonyl)-4,4-dimethylpent-2-enenitrile]
BRD9 [1]; [9]
  Dmax at 1 µM: 70 to 75%
BRD9 [1]; [10]
  Dmax at 1 µM: 70 to 75%
BRD9 [1]; [11]
  DC50: 10 to 25 nM
BRD9 [2]; [12]
  Dmax: 40 to 70%
BRD9 [2]; [13]
  DC50: 10 to 25 nM

## COc1cc(-c2cn(C)c(=O)c(C)c2C)cc(OC)c1CN1CCN(C(=O)/C(C#N)=C/C(C)(C)C)CC1 [BRD9a, (E/Z)-2-(4-(2,6-dimethoxy-4-(1,4,5-trimethyl-6-oxo-1,6-dihydropyridin-3-yl)benzyl)piperazine-1-carbonyl)-4,4-dimethylpent-2-enenitrile]
BRD9 [1]; [3]
  Dmax: 50 to 70%
BRD9 [1]; [4]
  Dmax: 40 to 70%
BRD9 [1]; [5]
  DC50: > 200 nM
BRD9 [1]; [6]
  DC50: 25 to 1000 nM
BRD9 [2]; [7]
  Dmax: 50 to 70%

## COc1cc(-c2cn(C)c(=O)c(C)c2C)cc(OC)c1CN(C)C(=O)/C(C#N)=C/C(C)(C)C [BRD9ac, (E/Z)-2-cyano-N-(2,6-dimethoxy-4-(1,4,5-trimethyl-6-oxo-1,6-dihydropyridin-3-yl)benzyl)-N,4,4-trimethylpent-2-enamide]
BRD9 [1]; [3]
  Dmax: 30 to 50%
BRD9 [1]; [5]
  DC50: 25 to 200 nM
BRD9 [2]; [7]
  Dmax: 50 to 70%
BRD9 [2]; [14]
  Dmax: 40 to 70%
BRD9 [2]; [15]
  DC50: 25 to 1000 nM

## COc1cc(-c2cn(C)c(=O)c(C)c2C)cc(OC)c1CN1CCCN(C(=O)/C(C#N)=C/C(C)(C)C)CC1 [BRD9c, (E/Z)-2-(4-(2,6-dimethoxy-4-(1,4,5-trimethyl-6-oxo-1,6-dihydropyridin-3-yl)benzyl)-1,4-diazepane-1-carbonyl)-4,4-dimethylpent-2-enenitrile]
BRD9 [1]; [3]
  Dmax: > 70%
BRD9 [1]; [5]
  DC50: < 25 nM
BRD9 [2]; [7]
  Dmax: > 70%
BRD9 [2]; [14]
  Dmax: > 75%
BRD9 [2]; [8]
  DC50: < 25 nM
BRD9 [2]; [15]
  DC50: < 1.25 nM

## COc1cc(-c2cn(C)c(=O)c(C)c2C)cc(OC)c1CN(C)C1CCN(C(=O)/C(C#N)=C/C(C)(C)C)CC1 [BRD9d, (E/Z)-2-(4-((2,6-dimethoxy-4-(1,4,5-trimethyl-6-oxo-1,6-dihydropyridin-3-yl)benzyl)(methyl)amino)piperidine-1-carbonyl)-4,4-dimethylpent-2-enenitrile]
BRD9 [1]; [3]
  Dmax: > 70%
BRD9 [1]; [4]
  Dmax: 70 to 75%
BRD9 [1]; [5]
  DC50: 25 to 200 nM
BRD9 [1]; [6]
  DC50: 10 to 25 nM
BRD9 [2]; [7]
  Dmax: 50 to 70%
BRD9 [2]; [8]
  DC50: > 200 nM

## COc1cc(-c2cn(C)c(=O)c(C)c2C)cc(OC)c1CN1CCN(C(=O)/C(C#N)=C/C(C)(C)C)C2(CC2)C1 [BRD9e, (E/Z)-2-(7-(2,6-dimethoxy-4-(1,4,5-trimethyl-6-oxo-1,6-dihydropyridin-3-yl)benzyl)-4,7-diazaspiro[2,5]octane-4-carbonyl)-4,4-dimethylpent-2-enenitrile]
BRD9 [1]; [5]
  DC50: > 200 nM
BRD9 [2]; [7]
  Dmax: 30 to 50%
BRD9 [2]; [14]
  Dmax: 25 to 40%
BRD9 [2]; [15]
  DC50: > 1000 nM
